Among the test systems are LOX IMVI melanoma; HCT-116 colon; OVCAR-3 ovarian; ACHN renal; SF-539 CNS; SF-268 CNS; DU-145 prostate; NCI/ADR-RES ovarian; OVCAR-5 ovarian; SK-MEL-2 melanoma.
Holding throughout (experiment): NCI tumour cell line growth inhibition, 48 h

SMILES strings stand for the structures.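 Grown in 96-well plates, cells were treated for 48 hours with each compound at five concentrations. Insufficient inhibition: endpoint recorded as highest concentration tested. TGI denotes the concentration required for complete inhibition of growth.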 *1 amine or outer side, *2 acyl side, *3 side chain or, on linkers, in order; H or OH if unused. Where a SMILES comes first, the peptide text is derived from it. Bridges are numbered along the chain shown (N, C = ends). [ ]: non-standard residue; d: D form. The star is where a group is joined. X38 = CC[C@H](C)[C@@H](N[*:1])[C@@H](O)CC(=O)[*:2]; NMeY = CN[C@@H](Cc1ccc(O)cc1)C(=O)O; dNMeL = CN[C@H](CC(C)C)C(=O)O; Hiv = CC(C)[C@H](O)C(=O)O; Pyruvoyl = CC(=O)C(=O)*

Regarding `Cc1nc2sc(CCl)nn2c(=O)c1Cl`, the TGI in the assay on LOX IMVI melanoma was 7.34 µM; with HCT-116 colon, 26.2 µM; in the assay on OVCAR-3 ovarian, 29.5 µM; in the assay with ACHN renal, 29.3 µM; in the assay with SF-539 CNS, 31.3 µM; with SF-268 CNS, 33.4 µM. The TGI with DU-145 prostate was 29.7 µM; in the assay on NCI/ADR-RES ovarian it was 50.8 µM; with OVCAR-5 ovarian, 28.7 µM; in the assay with SK-MEL-2 melanoma, 27.7 µM.

On to `O=c1[nH]c(=O)n(C2OC(CO)C(O)C(F)C2O)cc1F` (stereo not given), for which the TGI in the assay with LOX IMVI melanoma, with HCT-116 colon, in the assay with OVCAR-3 ovarian, with ACHN renal, in the assay on SF-539 CNS and in the assay with SF-268 CNS was greater than 100 µM in each case. The TGI with DU-145 prostate, with NCI/ADR-RES ovarian, in the assay with OVCAR-5 ovarian and in the assay on SK-MEL-2 melanoma was greater than 100 µM each time.

Turning to `CC[C@H](C)[C@H]1NC(=O)[C@@H](NC(=O)[C@@H](CC(C)C)N(C)C(=O)[C@@H]2CCCN2C(=O)C(C)=O)[C@@H](C)OC(=O)[C@H](Cc2ccc(OC)cc2)N(C)C(=O)[C@@H]2CCCN2C(=O)[C@H](CC(C)C)NC(=O)[C@H](C(C)C)OC(=O)C[C@@H]1O` (Pyruvoyl-P[dNMeL]T[X38][Hiv]LP[NMeY](Me); ester 3-C), the TGI in the assay with LOX IMVI melanoma was found to be 0.0481 µM; in the assay with HCT-116 colon it was 0.12 µM; in the assay with OVCAR-3 ovarian, 0.0532 µM; with ACHN renal, 0.438 µM; with SF-539 CNS, 0.0101 µM; in the assay with SF-268 CNS, 0.0983 µM. In addition, the TGI in the assay on DU-145 prostate stood at 0.00299 µM; with NCI/ADR-RES ovarian, 4.77 µM; in the assay with OVCAR-5 ovarian it was 0.167 µM; with SK-MEL-2 melanoma, 0.0255 µM.

Take `COc1cc2c(/C=C3/C(=O)Nc4ccc(Cl)cc43)c(Cl)n(Cc3ccccc3)c2cc1C`: the TGI with LOX IMVI melanoma was greater than 100 µM; with HCT-116 colon, greater than 100 µM; in the assay with OVCAR-3 ovarian, 4.83 µM; with ACHN renal it was 6.8 µM; in the assay on SF-539 CNS, 7.69 µM; in the assay with SF-268 CNS, greater than 100 µM. Moreover, the TGI in the assay on DU-145 prostate was 16.1 µM; in the assay with NCI/ADR-RES ovarian, greater than 100 µM; in the assay on OVCAR-5 ovarian it was 7.06 µM; in the assay with SK-MEL-2 melanoma, 34.9 µM.

As for `CCOC(=O)/C(N=Nc1ccc(-n2c(C)nc3ccccc3c2=O)cc1)=C(/C)O`, the TGI in the assay with LOX IMVI melanoma is greater than 100 µM; with HCT-116 colon it was greater than 100 µM; in the assay on OVCAR-3 ovarian, 53.1 µM; in the assay on ACHN renal, greater than 100 µM; in the assay on SF-539 CNS, greater than 100 µM; in the assay on SF-268 CNS, greater than 100 µM. The TGI with DU-145 prostate is greater than 100 µM; in the assay on NCI/ADR-RES ovarian, 51.8 µM; in the assay on OVCAR-5 ovarian, greater than 100 µM; in the assay on SK-MEL-2 melanoma, greater than 100 µM.

In the case of `O=C1NC(N2CCOCC2)=N/C1=C\c1cccs1`, the TGI in the assay with LOX IMVI melanoma, in the assay on HCT-116 colon, in the assay with OVCAR-3 ovarian, in the assay on ACHN renal, in the assay on SF-539 CNS and with SF-268 CNS was greater than 100 µM each time. Further, the TGI in the assay with DU-145 prostate, with NCI/ADR-RES ovarian, with OVCAR-5 ovarian and with SK-MEL-2 melanoma was greater than 100 µM throughout.

With `NC1CC(=O)c2cc(Cl)sc21` (stereo not given), the TGI with LOX IMVI melanoma, with HCT-116 colon, with OVCAR-3 ovarian, in the assay with ACHN renal, with SF-539 CNS and with SF-268 CNS was greater than 100 µM throughout. Moreover, the TGI in the assay on DU-145 prostate, with NCI/ADR-RES ovarian, in the assay on OVCAR-5 ovarian and in the assay with SK-MEL-2 melanoma was greater than 100 µM throughout.

Take `Fc1cc(C2=C[C@H](c3ccc(Cl)cc3)NC(=S)N2)c(Cl)cc1Cl`: the TGI in the assay with LOX IMVI melanoma, in the assay with HCT-116 colon, in the assay on OVCAR-3 ovarian, in the assay with ACHN renal, in the assay with SF-539 CNS and with SF-268 CNS was greater than 100 µM each time. Besides, the TGI was greater than 100 µM in the assay on DU-145 prostate, greater than 100 µM in the assay with NCI/ADR-RES ovarian, greater than 100 µM with OVCAR-5 ovarian and 96.2 µM with SK-MEL-2 melanoma.

As to `CCOC(=O)/C(O)=C(/C=N\C(=S)Nc1ccccc1Cl)C(=O)OCC`, the TGI with LOX IMVI melanoma, with HCT-116 colon, with OVCAR-3 ovarian, in the assay with ACHN renal, in the assay with SF-539 CNS and with SF-268 CNS was greater than 100 µM each time. Besides, the TGI in the assay on DU-145 prostate, in the assay on NCI/ADR-RES ovarian, in the assay with OVCAR-5 ovarian and in the assay with SK-MEL-2 melanoma was greater than 100 µM each time.

On to `COc1ccc(/C=C(\Cl)c2ccc(OC)c(OC)c2)cc1OC`, for which the TGI in the assay on LOX IMVI melanoma, in the assay on HCT-116 colon, in the assay with OVCAR-3 ovarian, with ACHN renal, in the assay on SF-539 CNS and in the assay with SF-268 CNS was greater than 100 µM each time. The TGI in the assay on DU-145 prostate, in the assay with NCI/ADR-RES ovarian, in the assay with OVCAR-5 ovarian and in the assay with SK-MEL-2 melanoma was greater than 100 µM each time.

As to `Cc1occc1C(=S)Nc1ccc(Cl)c(C(=O)OCC(F)(F)F)c1`, the TGI with LOX IMVI melanoma was 34.7 µM; in the assay with HCT-116 colon, 33.1 µM; in the assay on OVCAR-3 ovarian it was 81.4 µM; with ACHN renal, 54.1 µM; in the assay with SF-539 CNS it was 18.1 µM; in the assay with SF-268 CNS it was 42.3 µM. Further, the TGI is 47.1 µM with DU-145 prostate, 40.1 µM in the assay on NCI/ADR-RES ovarian, greater than 100 µM with OVCAR-5 ovarian and 44.9 µM in the assay with SK-MEL-2 melanoma.

Take `O=C(O)C1CC2C3CCC2C1C3=O` (stereo not given): the TGI with LOX IMVI melanoma, with HCT-116 colon, in the assay on OVCAR-3 ovarian, in the assay on ACHN renal, in the assay with SF-539 CNS and in the assay with SF-268 CNS was greater than 100 µM throughout. Moreover, the TGI in the assay on DU-145 prostate, in the assay on NCI/ADR-RES ovarian, in the assay on OVCAR-5 ovarian and in the assay with SK-MEL-2 melanoma was greater than 100 µM throughout.

For `COc1ccc(C2c3cc4c(cc3C(O)C3CCC(=O)N23)OCO4)cc1` (stereo not given), the TGI with LOX IMVI melanoma, with HCT-116 colon, with OVCAR-3 ovarian, with ACHN renal, in the assay on SF-539 CNS and in the assay on SF-268 CNS was greater than 100 µM in each case. Also, the TGI in the assay with DU-145 prostate, in the assay on NCI/ADR-RES ovarian, with OVCAR-5 ovarian and in the assay with SK-MEL-2 melanoma was greater than 100 µM each time.

On to `CN(C)c1ccc(-c2c(C#N)c(N)[nH]c(=S)c2C#N)cc1`, for which the TGI in the assay on LOX IMVI melanoma, in the assay on HCT-116 colon, in the assay on OVCAR-3 ovarian, in the assay on ACHN renal, with SF-539 CNS and in the assay on SF-268 CNS was greater than 100 µM throughout. Moreover, the TGI with DU-145 prostate, with NCI/ADR-RES ovarian, with OVCAR-5 ovarian and in the assay with SK-MEL-2 melanoma was greater than 100 µM in each case.

Source of the values: PubChem BioAssay (NCI).
